Test system: blood platelet aggregation
Test: Inhibition of blood platelet aggregation (ex vivo, ADP or collagen induced, rats dosed orally)
Assay type: in vivo, rat (SD strain, female)
Settings: rat, oral, 4 hours before test, ADP or collagen (inducer not given), read-out: % Inhibition of blood platelet aggregation (Test Ex. 2)
Experimental: Inhibition of Blood Platelet Aggregation Female rats of the SD strain (supplied by Japan Charles River Inc.) were divided into groups of 4 each for the test. […] As a control, a 5% w/v aqueous solution of gum arabic was administered to a control group of rats, without any test drug. Blood platelet aggregation was tested according to the method of P. Lumley and P. P. A. Humphrey [J. Pharmacol. Methods 6, 153-166 (1981)]with a partial modification. […] The blood platelet aggregation rate was calculated from the following equation. […] The inhibitory effect was calculated as the percent inhibition of the treated groups as compared with the control groups.

Structure (SMILES)	inhibition at 30 mg/kg (30 mg/kg (footnote *))	inhibition at 3 mg/kg	inhibition at 10 mg/kg	inhibition at 1 mg/kg
Clc1ccccc1CN1CCc2sccc2C1 [Compound A, 5 (2-chlorobenzyl)-4,5,6,7-tetrahydrothieno[3,2-c]pyridine, reference compound]	3.7%	–	–	–
COC(=O)C(c1ccccc1Cl)N1CCc2sccc2C1 (stereo not drawn) [Compound B, 5-(2-chloro-α-methoxycarbonylbenzyl) 4,5,6,7-tetrahydrothieno[3,2-c]pyridine, reference compound]	–	25.7%	98.8%	–
CCC(=O)C(c1ccccc1F)N1CCc2sccc2C1 (stereo not drawn) [Compound No. 19, 5-(2-Fluoro-α-propionylbenzyl)-4,5,6,7-tetrahydrothieno[3,2-c]pyridine]	–	29.3%	97.8%	–
O=C(C1CC1)C(c1ccccc1F)N1CCc2sccc2C1 (stereo not drawn) [Compound No. 59, 5-(α-Cyclopropylcarbonyl-2-fluorobenzyl)-4,5,6,7-tetrahydrothieno[3,2-c]pyridine]	–	98.1%	–	57.1%
O=C(C1CC1)C(c1ccccc1Cl)N1CCc2sccc2C1 (stereo not drawn) [Compound No. 60, 5-(2-Chloro-α-cyclopropylcarbonylbenzyl)-4,5,6,7-tetrahydrothieno[3,2-c]pyridine]	–	74.2%	100%	–
CC(=O)Oc1cc2c(s1)CCN(C(C(=O)C1CC1)c1ccccc1F)C2 (stereo not drawn) [Compound No. 190, 2-Acetoxy-5-(α-cyclopropylcarbonyl-2-fluorobenzyl)4,5,6,7-tetrahydrothieno[3,2-c]pyridine]	–	–	–	100%
CCCC(=O)Oc1cc2c(s1)CCN(C(C(=O)C1CC1)c1ccccc1F)C2 (stereo not drawn) [Compound No. 194, 2-Butyryloxy-5-(α-cyclopropylcarbonyl-2-fluorobenzyl)4,5,6,7-tetrahydrothieno[3,2-c]pyridine]	–	–	–	100%
CC(C)(C)C(=O)Oc1cc2c(s1)CCN(C(C(=O)C1CC1)c1ccccc1F)C2 (stereo not drawn) [Compound No. 196, 5-(α-Cyclopropylcarbonyl-2-fluorobenzyl)-2-pivaloyloxy-4,5,6,7-tetrahydrothieno[3,2-c]pyridine]	–	–	–	97.6%
O=C1C=C2CN(C(C(=O)C3CC3)c3ccccc3Cl)CCC2S1 (stereo not drawn) [Compound No. 233, 5-(2-Chloro-α-cyclopropylcarbonylbenzyl)-2-oxo-2,4,5,6,7,7a-hexahydrothieno[3,2-c]pyridine]	–	–	98.9%	–
O=C1C=C2CN(C(C(=O)C3CC3)c3ccccc3F)CCC2S1 (stereo not drawn) [Compound No. 235, 5-(α-Cyclopropylcarbonyl-2-fluorobenzyl)-2-oxo-2,4,5,6,7,7a-hexahydrothieno[3,2-c]pyridine]	–	–	–	98.8%

— patent US5288726A, “Tetrahydrothienopyridine derivatives, furo and pyrrolo analogs thereof and their preparation and uses for inhibiting blood platelet aggregation” (Ube Industries Limited, priority 1991, dated 1994)
